Test results reported in publication PMC9927457 (Microbiology Spectrum, 2023).

How the values were obtained:
HepG2 cells = assay: HepG2 cytotoxicity; format: cell-based, human; conditions: Homo sapiens, HepG2, 72 h, 3 days exposure, CellTiter-Glo
Experimental: HepG2 cells were used to measure eukaryotic cytotoxicity. Viability of HepG2 was measured using CellTiter-Glo reagent (Promega) after 3 days of exposure to compounds. […] Staurosporine controls (maximum inhibition) and a staurosporine dose response were included on every plate.

RAW 264.7 macrophages = assay: Cytotoxicity against infected macrophages; format: cell-based, murine; conditions: Mus musculus; infected RAW264:7 cells, 72 h; read-out: IC50 Macrophage
Experimental: Murine RAW 264.7 macrophages (ATCC TIB-71) were infected with M. tuberculosis DsRed (DREAM8) ([29]) as described at a multiplicity of infection of 1 for 24 h, washed, harvested, and dispensed into 384-well plates ([30]). Infected macrophages were exposed to compounds for 72 h; cell nuclei were stained with SYBR green I. Plates were imaged with an ImageXpress Micro High Content Screening System (Molecular Devices) using a ×4 objective and FITC and Texas Red channels. MetaXpress was used to determine the integrated intensity of bacteria or macrophages. […] Isoniazid and staurosporine controls (maximum inhibition) and dose responses were included on every plate.

in vitro = conditions: human; for Papp A→B at 2 h, 10 µM / Papp B→A at 2 h, 10 µM / efflux ratio at 2 h, 10 µM: Caco-2
Experimental: (§1) Permeability was measured across Caco-2 cells cultured in a Millipore 96-well Caco-2 plate. For apical to basolateral (A→B) permeability, 10 μM compound was added to the apical (A) side and amount of permeation was determined on the basolateral (B) side; for basolateral to apical (B→A) permeability, the compound was added to the B side and the amount of permeation was determine on the A side. Time points were taken at 2 h.
(§2) Table S2. Permeability. Permeability was measured using Caco-2 cells after 1 and 2 hours incubation with compound. (A→B) is Apical to Basolateral; (B→A) is Basolateral to Apical. Data is expressed as permeability (10-6 cm s-1). dQ/dt is rate of permeation, C0 is initial concentration […]
(§3) Article Duration direction value replicate replicate mean recovery

Caco-2 cells = assay: Caco-2 permeability; conditions: for recovery: human, 10 μM
Experimental: as §1, §2, §3

CYP2C19 = CYP2C19 (Homo sapiens, UniProt P33261); assay: biochemical
Experimental: (§4) Table S4. Inhibition of cytochrome P450s.
(§5) Compounds were tested for inhibition of P450s using the enzyme substrate pairs and conditions noted. IC50s (µM) were calculated. Control P450 inhibitors were included for each isoform.
(§6) For each compound, the analytical method was developed as follows. Analyte signal was optimized for each compound by ESI positive or negative ionization mode. An MS2 scan or an SIM scan was used to optimize fragmenter voltage and a product ion analysis was used to identify the best fragment for analysis. The collision energy was optimized using a product ion or MRM scan. An ionization ranking was assigned indicating the compound’s ease of ionization. Samples […]
(§7) 1200 HPLC and a CTC PAL chilled autosampler, all controlled by MassHunter software (Agilent).
(§8) After separation on a C18 reverse phase HPLC column (Agilent Zorbax StableBond 3.5µm, 2.1 x 30 mm) using an acetonitrile -water gradient system, peaks were analyzed by mass spectrometry (MS) using ESI ionization in MRM mode.
(§9) (1 picture or pasted object on this page, not shown here)
(§10) Serial dilutions of a 10 mM stock solution were prepared in acetonitrile:DMSO (9:1). The final DMSO concentration was < 0.2%. Compounds were incubated with human liver microsomes in the presence of 2 mM NADPH in 100 mM potassium phosphate (pH 7.4) containing 5 mM magnesium chloride and a probe substrate, in a 200 µl assay final volume in duplicate. The probe substrate concentrations including bupropion (CYP2B6), amodiaquine (CYP2C8), tolbutamide (CYP2C9), mephenytoin (CYP2C19), dextromethorphan (CYP2D6) and midazolam/testosterone […]
(§11) After incubation at 37 °C, reactions were terminated by addition of methanol containing internal standard (propranolol) for analytical quantification. The quenched samples were kept on ice for 10 min and centrifuged at 4 °C for 10 min. The supernatant was removed and the probe substrate metabolite was analyzed by LC-MS/MS (Agilent Technologies Triple Quad LC/MS). A decrease in the formation of the metabolite compared to vehicle control

CYP2C8 = biological target: T1, CYP2C8 (Homo sapiens, UniProt P10632); assay: biochemical
T1 sequence (P10632 1-490): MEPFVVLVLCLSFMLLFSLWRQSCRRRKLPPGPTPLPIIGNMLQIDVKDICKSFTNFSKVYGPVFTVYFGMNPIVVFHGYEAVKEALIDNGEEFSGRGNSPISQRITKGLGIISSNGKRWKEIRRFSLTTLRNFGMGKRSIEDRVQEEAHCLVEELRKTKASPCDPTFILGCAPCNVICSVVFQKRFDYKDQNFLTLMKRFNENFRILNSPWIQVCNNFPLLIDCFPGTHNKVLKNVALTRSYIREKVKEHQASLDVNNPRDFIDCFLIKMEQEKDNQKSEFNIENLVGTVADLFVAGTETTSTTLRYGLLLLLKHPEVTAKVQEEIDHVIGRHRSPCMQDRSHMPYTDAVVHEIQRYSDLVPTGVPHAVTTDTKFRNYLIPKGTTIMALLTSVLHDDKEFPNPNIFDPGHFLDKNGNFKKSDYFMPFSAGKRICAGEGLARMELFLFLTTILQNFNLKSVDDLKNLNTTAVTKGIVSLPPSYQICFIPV
Experimental: as §4, §5, §6, §7, §8, §9, §10, §11

CYP2C9 = CYP2C9 (Homo sapiens, UniProt P11712); assay: biochemical
Experimental: as §4
(§12) Compounds were tested for inhibition of P450s using the enzyme substrate pairs and conditions noted. IC50s (µM) were calculated. Control P450 inhibitors were included for each isoform. […]
as §10, §11

CYP2D6 = CYP2D6 (Homo sapiens, UniProt P10635); assay: biochemical
Experimental: as §4, §12, §7, §8, §10, §11

CYP3A4 = CYP3A4 (Homo sapiens, UniProt P08684); assay: Cytochrome P450 inhibition; format: in vitro ADME; conditions: liver microsomes
Experimental: as §4, §5, §6, §7, §8, §9, §10, §11

[1] = Plasma protein binding (Rapid Equilibrium Dialysis); format: in vitro ADME, human; conditions: human; for fraction unbound at 4 h, 5 µM: plasma
Experimental: Molecule fraction fraction Post-Assay
Table S5. Plasma protein binding
Protein binding was measured in human plasma using Rapid Equilibrium Dialysis (RED) devices (Pierce) according to the manufacturers’ instructions; 5 µM compounds in plasma were dialysed against PBS for 4 h at 37C. Compounds were detected by LC-MS/MS in plasma and PBS

[2] = Mean plasma fraction Unbound Fuplasma

Chain of CYP3A4 (P08684 2-503): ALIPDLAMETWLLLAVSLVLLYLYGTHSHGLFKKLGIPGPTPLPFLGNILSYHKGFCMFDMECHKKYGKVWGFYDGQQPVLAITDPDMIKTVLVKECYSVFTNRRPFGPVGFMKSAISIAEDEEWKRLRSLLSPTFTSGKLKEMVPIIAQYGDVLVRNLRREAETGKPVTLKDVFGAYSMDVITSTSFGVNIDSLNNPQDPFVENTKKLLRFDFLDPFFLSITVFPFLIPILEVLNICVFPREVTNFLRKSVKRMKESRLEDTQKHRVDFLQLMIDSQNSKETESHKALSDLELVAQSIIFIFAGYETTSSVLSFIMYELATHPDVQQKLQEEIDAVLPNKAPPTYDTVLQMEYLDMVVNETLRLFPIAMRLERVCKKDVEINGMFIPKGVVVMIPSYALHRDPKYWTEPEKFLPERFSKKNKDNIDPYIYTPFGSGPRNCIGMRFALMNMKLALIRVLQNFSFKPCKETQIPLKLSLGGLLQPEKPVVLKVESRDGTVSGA
Chain of CYP2D6 (P10635 whole entry): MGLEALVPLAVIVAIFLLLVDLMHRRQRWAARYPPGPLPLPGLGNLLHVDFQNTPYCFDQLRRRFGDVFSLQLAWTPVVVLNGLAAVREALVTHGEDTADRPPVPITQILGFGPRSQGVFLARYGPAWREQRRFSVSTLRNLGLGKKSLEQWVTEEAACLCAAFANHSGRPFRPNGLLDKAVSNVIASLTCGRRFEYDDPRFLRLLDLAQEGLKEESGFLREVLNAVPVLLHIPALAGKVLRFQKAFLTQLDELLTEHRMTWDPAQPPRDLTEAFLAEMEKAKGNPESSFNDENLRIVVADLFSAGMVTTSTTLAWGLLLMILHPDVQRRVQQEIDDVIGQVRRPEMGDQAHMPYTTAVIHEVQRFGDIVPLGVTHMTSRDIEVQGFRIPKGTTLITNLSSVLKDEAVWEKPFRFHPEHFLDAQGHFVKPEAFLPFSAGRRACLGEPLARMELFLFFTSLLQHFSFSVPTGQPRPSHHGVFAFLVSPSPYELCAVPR
Chain of CYP2C19 (P33261 whole entry): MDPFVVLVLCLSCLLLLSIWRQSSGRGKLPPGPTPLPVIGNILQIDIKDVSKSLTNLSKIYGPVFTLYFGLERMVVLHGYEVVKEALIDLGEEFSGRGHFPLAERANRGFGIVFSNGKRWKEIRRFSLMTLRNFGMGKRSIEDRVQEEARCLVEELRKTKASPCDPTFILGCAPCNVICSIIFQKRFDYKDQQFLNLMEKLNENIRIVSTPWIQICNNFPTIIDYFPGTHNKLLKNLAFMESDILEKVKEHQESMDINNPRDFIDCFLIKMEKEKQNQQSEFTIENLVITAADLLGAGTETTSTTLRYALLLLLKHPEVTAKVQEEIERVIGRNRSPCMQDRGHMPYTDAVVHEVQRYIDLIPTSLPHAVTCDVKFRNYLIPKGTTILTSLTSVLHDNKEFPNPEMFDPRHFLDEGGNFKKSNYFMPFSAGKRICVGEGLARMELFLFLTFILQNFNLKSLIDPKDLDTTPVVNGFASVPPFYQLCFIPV
Chain of CYP2C9 (P11712 whole entry): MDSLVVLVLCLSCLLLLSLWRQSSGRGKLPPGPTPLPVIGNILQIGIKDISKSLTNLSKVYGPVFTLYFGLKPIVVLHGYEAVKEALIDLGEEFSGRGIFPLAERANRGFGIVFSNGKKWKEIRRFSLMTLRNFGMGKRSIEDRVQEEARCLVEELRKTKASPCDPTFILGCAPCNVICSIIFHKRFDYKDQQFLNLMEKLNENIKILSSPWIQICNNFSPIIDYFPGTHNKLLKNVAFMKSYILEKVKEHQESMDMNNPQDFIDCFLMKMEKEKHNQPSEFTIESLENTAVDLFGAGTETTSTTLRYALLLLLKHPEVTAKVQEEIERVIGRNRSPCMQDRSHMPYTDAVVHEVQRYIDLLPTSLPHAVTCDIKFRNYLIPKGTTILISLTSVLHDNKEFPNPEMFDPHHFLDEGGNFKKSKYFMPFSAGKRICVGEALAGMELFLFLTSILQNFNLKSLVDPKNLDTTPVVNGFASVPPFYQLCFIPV

Row | SMILES | IC50 (HepG2 cells) | IC50 (RAW 264.7 macrophages) | Papp A→B at 2 h, 10 µM (in vitro) | Papp B→A at 2 h, 10 µM (in vitro) | efflux ratio at 2 h, 10 µM (in vitro) | dQ/dt (rate of permeation), mean (Caco-2 cells; A→B, assay duration 1 hr) | dQ/dt (rate of permeation), mean (Caco-2 cells; A→B, assay duration 2 hr) | dQ/dt (rate of permeation), mean (Caco-2 cells; B→A, assay duration 1 hr) | dQ/dt (rate of permeation), mean (Caco-2 cells; B→A, assay duration 2 hr) | IC50 (CYP2C19) | IC50 (CYP2C8) | IC50 (CYP2C9) | IC50 (CYP2D6) | IC50 at 10 min (CYP3A4; pH 7.4, probe midazolam) | IC50 at 10 min (CYP3A4; pH 7.4, probe testosterone) | recovery at 4 h, 5 µM [1] | fraction unbound at 4 h, 5 µM ([1]; Mean plasma fraction Bound) | fraction unbound at 4 h, 5 µM [1, 2] | also measured
1 | CCCCNC(=S)Nc1nc2ccccc2s1 [Molecule 1, 1-(benzo[d]thiazol-2-yl)-3-butylthiourea] | 26 ± 12 µM | > 100 µM | 1.4 ×10⁻⁶ cm/s | 2.5 ×10⁻⁶ cm/s | 1.7 | 9.7E-06 | 2.1E-05 | 2.4E-05 | 3.8E-05 | 4.6 µM | > 20 µM | > 20 µM | > 20 µM | > 20 µM | > 20 µM | 84.3% | 0.001 | 0.001 | 
2 | CCCCNC(=S)Nc1nc(C)co1 [Molecule 21, 1-butyl-3-(4-methyloxazol-2-yl)thiourea] | 42 ± 12 µM | 6 ± 1 µM | 21 ×10⁻⁶ cm/s | 19 ×10⁻⁶ cm/s | 0.89 | 4.2E-04 | 3.0E-04 | 3.8E-04 | 2.8E-04 | > 20 µM | > 20 µM | > 20 µM | > 20 µM | > 20 µM | 11.9 µM | 83.9% | 0.037 | 0.037 | recovery at 1 h, 10 μM (in vitro; Caco-2, recovery): 59%; recovery at 2 h, 10 μM (in vitro; Caco-2, recovery): 56%; recovery (Caco-2 cells; Caco-2, 1 h): 77%; recovery (Caco-2 cells; Caco-2, 2 h): 67%
